Measurements: the NIST ThermoML archive (doi:10.1021/je800110r)

Settings: 293.15 K, Liquid, Vibrating tube method

CCCCCCCCCC [decane]
Settings	mass density [kg/m3]
28146 kPa	749.4
28177 kPa	749.5
28205 kPa	749.5
28236 kPa	749.5
28261 kPa	749.4
28289 kPa	749.5
28321 kPa	749.5
28349 kPa	749.5
28373 kPa	749.5
28405 kPa	749.5
28425 kPa	749.6
28454 kPa	749.5
28482 kPa	749.6
28507 kPa	749.6
28527 kPa	749.6
28552 kPa	749.5
28597 kPa	749.7
28622 kPa	749.7
28643 kPa	749.6
28663 kPa	749.8
28687 kPa	749.7
28712 kPa	749.7
28749 kPa	749.8
28770 kPa	749.7
28807 kPa	749.8
28836 kPa	749.7
28865 kPa	749.9
28886 kPa	749.9
28919 kPa	749.9
28945 kPa	749.9
28974 kPa	749.9
28999 kPa	749.9
29029 kPa	749.9
29050 kPa	749.9
29084 kPa	749.9
29114 kPa	750
29149 kPa	749.9
29175 kPa	750
29213 kPa	750
29232 kPa	750.1
29263 kPa	750.1
29295 kPa	750.1
29326 kPa	750.1
29350 kPa	750.1
29376 kPa	750.2
29396 kPa	750.1
29419 kPa	750.1
29439 kPa	750.2
29470 kPa	750.3
29494 kPa	750.2
29518 kPa	750.3
29549 kPa	750.2
29574 kPa	750.3
29600 kPa	750.3
29620 kPa	750.3
29645 kPa	750.3
29668 kPa	750.3
29701 kPa	750.3
29724 kPa	750.4
29760 kPa	750.4
29780 kPa	750.5
29804 kPa	750.3
29828 kPa	750.5
29852 kPa	750.4
29877 kPa	750.4
29904 kPa	750.4
29931 kPa	750.5
29960 kPa	750.4
29996 kPa	750.5
30021 kPa	750.6
30041 kPa	750.6
30078 kPa	750.6
30098 kPa	750.5
30123 kPa	750.6
30144 kPa	750.7
30168 kPa	750.7
30194 kPa	750.7
30219 kPa	750.7
30248 kPa	750.7
30273 kPa	750.8
30294 kPa	750.7
30328 kPa	750.8
30358 kPa	750.8
30393 kPa	750.9
30419 kPa	750.8
30455 kPa	750.9
30479 kPa	750.8
30506 kPa	750.8
30546 kPa	750.8
30560 kPa	750.8
30576 kPa	750.9
30591 kPa	750.9
30604 kPa	751
30620 kPa	750.9
30641 kPa	750.9
30659 kPa	750.9
30682 kPa	751
30703 kPa	751.1
30721 kPa	751
30739 kPa	751
30752 kPa	751
30771 kPa	751
30795 kPa	751
30813 kPa	751.1
30826 kPa	751.1
30845 kPa	751.1
30866 kPa	751
30887 kPa	751.1
30908 kPa	751.1
30924 kPa	751
30942 kPa	751.1
30955 kPa	751.1
30977 kPa	751.1
30995 kPa	751.1
31014 kPa	751.1
31028 kPa	751.2
31044 kPa	751.1
31057 kPa	751.1
31074 kPa	751.2
31090 kPa	751.2
31106 kPa	751.2
31130 kPa	751.3
31147 kPa	751.3
31168 kPa	751.3
31188 kPa	751.3
31207 kPa	751.3
31224 kPa	751.3
31243 kPa	751.2
31260 kPa	751.3
31279 kPa	751.3
31295 kPa	751.4
31314 kPa	751.3
31339 kPa	751.3
31356 kPa	751.4
31375 kPa	751.4
31391 kPa	751.3
31412 kPa	751.3
31425 kPa	751.4
31441 kPa	751.4
31455 kPa	751.5
31472 kPa	751.3
31489 kPa	751.4
31503 kPa	751.5
31520 kPa	751.5
31542 kPa	751.4
31564 kPa	751.5
31581 kPa	751.5
31601 kPa	751.5
31615 kPa	751.4
31636 kPa	751.4
31651 kPa	751.6
31670 kPa	751.5
31687 kPa	751.5
31710 kPa	751.7
31724 kPa	751.8
31738 kPa	751.5
31755 kPa	751.5
31774 kPa	751.6
31797 kPa	751.5
31811 kPa	751.6
31831 kPa	751.7
31847 kPa	751.7
31864 kPa	751.7
31885 kPa	751.7
31907 kPa	751.7
31928 kPa	751.6
31944 kPa	751.6
31965 kPa	751.9
31989 kPa	751.7
32005 kPa	751.8
32027 kPa	751.7
32043 kPa	751.7
32061 kPa	751.8
32081 kPa	751.9
32100 kPa	751.8
32124 kPa	751.9
32148 kPa	751.9
32167 kPa	751.8
32191 kPa	751.8
32207 kPa	751.9
32230 kPa	751.9
32246 kPa	751.8
32266 kPa	751.9
32282 kPa	751.8
32299 kPa	751.9
32324 kPa	752
32345 kPa	752
32362 kPa	751.9
32379 kPa	751.9
32400 kPa	751.9
32420 kPa	752
32445 kPa	752
32462 kPa	751.9
32478 kPa	752
32498 kPa	752
32520 kPa	752.1
32537 kPa	751.9
32555 kPa	752.1
32572 kPa	752.1
32592 kPa	752.2
32612 kPa	752
32637 kPa	752.2
32657 kPa	752.1
32673 kPa	752.1
32690 kPa	752.1
32716 kPa	752.1
32733 kPa	752.2
32750 kPa	752.1
32770 kPa	752.1
32790 kPa	752.2
32808 kPa	752.2
32825 kPa	752.3
32848 kPa	752.2
32865 kPa	752.4
32888 kPa	752.3
32911 kPa	752.2
32930 kPa	752.4
32953 kPa	752.4
32972 kPa	752.4
32993 kPa	752.3
33014 kPa	752.3
33038 kPa	752.3
33061 kPa	752.4
33080 kPa	752.4
33103 kPa	752.3
33132 kPa	752.4
33150 kPa	752.5
33180 kPa	752.4
33203 kPa	752.4
33218 kPa	752.4
33239 kPa	752.5
33260 kPa	752.3
33279 kPa	752.4
33304 kPa	752.5
33334 kPa	752.5
33349 kPa	752.4
33373 kPa	752.6
33397 kPa	752.7
33416 kPa	752.7
33440 kPa	752.5
33465 kPa	752.6
33484 kPa	752.5
33514 kPa	752.6
33536 kPa	752.6
33555 kPa	752.6
33576 kPa	752.6
33606 kPa	752.7
33631 kPa	752.8
33649 kPa	752.6
33667 kPa	752.8
33692 kPa	752.7
33710 kPa	752.8
33738 kPa	752.8
33760 kPa	752.7
33791 kPa	752.9
33807 kPa	752.8
33829 kPa	752.8
33848 kPa	752.8
33896 kPa	752.8
33919 kPa	752.9
33934 kPa	752.9
33961 kPa	753
33976 kPa	752.9
33992 kPa	752.9
34010 kPa	752.9
34029 kPa	752.9
34050 kPa	753
34069 kPa	753
34090 kPa	752.9
34112 kPa	753
34129 kPa	753.1
34148 kPa	753
34176 kPa	753
34198 kPa	752.9
